The record followed here is US12012398B2, “Bicyclic compounds as androgen receptor modulators” (NIDO BIOSCIENCES, INC., priority 2021, dated 2024).

pIC50: −log10 of the molar value. Some results are limits rather than exact numbers.

The test deals with LNCaP cells expressing ARR2PB-FireflyLuc and CMV-RenillaLuc. As to the kind of experiment: LNCaP ARR2PB-FireflyLuc reporter assay, antagonist mode.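 Note: IC50 bins in nM.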 To be noted: Homo sapiens, LNCaP, 48 h, +0.5 nM DHT, 48 h at 37° C., read-out: LNCap Antagonist Archive: IC50. The test is classed as cell-based. How it is done: LNCaP cells expressing ARR2PB-FireflyLuc and CMV-RenillaLuc were treated with indicated concentrations of test compounds, enzalutamide (negative control), or DHT (positive control)+/−0.5 nM DHT for 48 h at 37° C. Fluorescent signals were read with the ImageXpress Micro Confocal System. Remaining activity (antagonist mode) was calculated as % Remaining Activity=100×[(ReadSample−LCave)/(HCave−LCave)] where HC is cells treated with 0.5 nM DHT only and LC is cells treated with 10 uM enzalutamide+0.5 nM DHT. Activation (agonist mode) was calculated as % Activation=100×[(ReadSample−LCave)/(HCave−LCave)] where HO is cells treated with 1 uM DHT and LC is cells treated with DMSO. Dose response curves and IC50 values were calculated using non-linear regression analysis in XLfit.
The designation “A” indicates an IC50 value of >10 μM, “B” indicates an IC50 value between 1 μM and 10 μM; “C” indicates an IC50 value between 100 nM and 1 μM; and “D” indicates an IC50 value of less than 100 nM.
For orientation: Reporter assays use an easily measured gene product as a stand-in for the process of interest.
For the compound `O=C(NC1CC(F)(F)C1)c1cc2ccnc(Cl)c2[nH]1` [Example 100, 7-chloro-N-(3,3-difluorocyclobutyl)-1H-pyrrolo[2,3-c]pyridine-2-carboxamide], the pIC50 was 6.00 to 7.00. The value for `CN(CC1CC1)C(=O)c1cc2cccc(Cl)c2[nH]1` [Example 32, 7-chloro-N-(cyclopropylmethyl)-N-methyl-1H-indole-2-carboxamide] was 5.00 to 6.00; that for `CN(C(=O)c1cc2ccnc(OC3CC3)c2[nH]1)C12CC(F)(C1)C2` [Example 126, 7-cyclopropoxy-N-{3-fluorobicyclo[1.1.1]pentan-1-yl}-N-methyl-1H-pyrrolo[2,3-c]pyridine-2-carboxamide] was less than 5.00; that for `CC1OCCC1N(C)C(=O)c1cc2cccc(Cl)c2[nH]1` (centres unmarked) [Example 80, 7-chloro-N-methyl-N-(2-methyloxolan-3-yl)-1H-indole-2-carboxamide] was 5.00 to 6.00. The value for `CC(C)N(Cc1cnco1)C(=O)c1cc2cccc(C#N)c2[nH]1` [Example 66, 7-cyano-N-isopropyl-N-(1,3-oxazol-5-ylmethyl)-1H-indole-2-carboxamide] was 5.00 to 6.00; that for `CC(C)N(Cc1ccno1)C(=O)c1cc2ccc(F)cc2[nH]1` [Example 8, 6-fluoro-N-isopropyl-N-(1,2-oxazol-5-ylmethyl)-1H-indole-2-carboxamide] was 5.00 to 6.00; that for `O=C(NC12CC(F)(C1)C2)c1cc2c(Cl)nccc2s1` [Example 158, 4-chloro-N-(3-fluorobicyclo[1.1.1]pentan-1-yl)thieno[3,2-c]pyridine-2-carboxamide] was 6.00 to 7.00. The value for `CC(C)N(Cc1ccncc1)C(=O)c1cc2ccc(F)cc2[nH]1` [Example 10, 6-fluoro-N-isopropyl-N-(pyridin-4-ylmethyl)-1H-indole-2-carboxamide] was 5.00 to 6.00; that for `Cn1c(C(=O)NC2(C)CCC2)cc2ccnc(Cl)c21` [Example 147, 7-chloro-1-methyl-N-(1-methylcyclobutyl)pyrrolo[2,3-c]pyridine-2-carboxamide] was 6.00 to 7.00. For the compound `Cn1c(C(=O)NC23CC(F)(C2)C3)cc2ccnc(OC3CC3)c21` [Example 119, 7-cyclopropoxy-N-{3-fluorobicyclo[1.1.1]pentan-1-yl}-1-methylpyrrolo[2,3-c]pyridine-2-carboxamide], the pIC50 is less than 5.00. Regarding `CN(C(=O)c1[nH]c2ccccc2c1Cl)c1ccccc1` [Example 22, 3-chloro-N-methyl-N-phenyl-1H-indole-2-carboxamide], the pIC50 is less than 5.00. Regarding `O=C(NC12CC(F)(C1)C2)c1cc2ccnc(OC3CC3)c2[nH]1` [Example 122, 7-cyclopropoxy-N-{3-fluorobicyclo[1.1.1]pentan-1-yl}-1H-pyrrolo[2,3-c]pyridine-2-carboxamide], the pIC50 is less than 5.00. As for `CC(C)N1CCC(N(C)C(=O)c2cc3cccc(Cl)c3[nH]2)CC1` [Example 45, 7-chloro-N-(1-isopropylpiperidin-4-yl)-N-methyl-1H-indole-2-carboxamide], the figure is less than 5.00. Turning to `CN(C(=O)c1cc2ccc(F)cc2o1)c1ccccn1` [Example 38, 6-fluoro-N-methyl-N-(pyridin-2-yl)-1-benzofuran-2-carboxamide], the pIC50 is less than 5.00. As for `CCN(C(=O)c1cc2ccnc(Cl)c2[nH]1)C12CC(F)(C1)C2` [Example 117, 7-chloro-N-ethyl-N-{3-fluorobicyclo[1.1.1]pentan-1-yl}-1H-pyrrolo[2,3-c]pyridine-2-carboxamide], the figure is 6.00 to 7.00; as for `C[C@H]1COC[C@H]1NC(=O)c1cc2cccc(Cl)c2[nH]1` [Example 65, 7-chloro-N-[(3S,4R)-4-methyloxolan-3-yl]-1H-indole-2-carboxamide], 5.00 to 6.00.

`CN(C(=O)c1cc2cccc(Cl)c2[nH]1)C1CCCCC1` [Example 81, 7-chloro-N-cyclohexyl-N-methyl-1H-indole-2-carboxamide]: the pIC50 is 5.00 to 6.00. As for `COCCN(C(=O)c1cc2ccc(F)cc2[nH]1)c1ccccc1` [Example 12, 6-fluoro-N-(2-methoxyethyl)-N-phenyl-1H-indole-2-carboxamide], the figure is 5.00 to 6.00; as for `N#Cc1ccc(N(CC2CC2)C(=O)c2cc3cccc(Cl)c3[nH]2)cc1` [Example 56, 7-chloro-N-(4-cyanophenyl)-N-(cyclopropylmethyl)-1H-indole-2-carboxamide], 6.00 to 7.00; as for `COCCN(C(=O)c1cc2cccc(Cl)c2[nH]1)c1ccc(C#N)cc1` [Example 55, 7-chloro-N-(4-cyanophenyl)-N-(2-methoxyethyl)-1H-indole-2-carboxamide], 6.00 to 7.00. `O=C(NC12CC(F)(C1)C2)c1cc2ccnc(Cl)c2[nH]1` [Example 99, 7-chloro-N-[3-fluorobicyclo[1.1.1]pentan-1-yl]-1H-pyrrolo[2,3-c]pyridine-2-carboxamide]: the pIC50 is 5.00 to 6.00.

For `CN(C(=O)c1cc2cccc(Cl)c2[nH]1)C1CCCOC1` (centres unmarked) [Example 73, 7-chloro-N-methyl-N-(oxan-3-yl)-1H-indole-2-carboxamide], the pIC50 is less than 5.00.

Consider `CN(C(=O)c1cc2ccc(F)cc2[nH]1)C12CC(C1)C2` [Example 93, N-[bicyclo[1.1.1]pentan-1-yl]-6-fluoro-N-methyl-1H-indole-2-carboxamide], for which the pIC50 was 6.00 to 7.00. For the compound `CN(C)C(=O)c1cc2cccc(Cl)c2[nH]1` [Example 29, 7-chloro-N,N-dimethyl-1H-indole-2-carboxamide], the pIC50 was 5.00 to 6.00. As for `Cc1c(C(=O)NC23CC(F)(C2)C3)[nH]c2c(Cl)cccc12` [Example 109, 7-chloro-N-[3-fluorobicyclo[1.1.1]pentan-1-yl]-3-methyl-1H-indole-2-carboxamide], the figure is 6.00 to 7.00; as for `N#Cc1ccc(NC(=O)c2cc3cccc(Cl)c3[nH]2)cc1` [Example 68, 7-chloro-N-(4-cyanophenyl)-1H-indole-2-carboxamide], 5.00 to 6.00. The value for `CN(C(=O)c1cc2cccc(Cl)c2[nH]1)C12CC(C1)C2` [Example 82, N-[bicyclo[1.1.1]pentan-1-yl]-7-chloro-N-methyl-1H-indole-2-carboxamide] was 6.00 to 7.00. As for `CN(C(=O)c1cc2cccc(C(F)(F)F)c2o1)c1ccc(F)cc1` [Example 36, N-(4-fluorophenyl)-N-methyl-7-(trifluoromethyl)benzofuran-2-carboxamide], the figure is 5.00 to 6.00.

Turning to `CN(C(=O)c1cc2cccc(C(F)(F)F)c2[nH]1)c1ccccn1` [Example 26, N-methyl-N-(pyridin-2-yl)-7-(trifluoromethyl)-1H-indole-2-carboxamide], the pIC50 is 6.00 to 7.00. Consider `O=C(NC12CC(C1)C2)c1cc2cccc(Cl)c2[nH]1` [Example 89, N-[bicyclo[1.1.1]pentan-1-yl]-7-chloro-1H-indole-2-carboxamide], for which the pIC50 was 6.00 to 7.00. As to `CC(C)N(Cc1cccnc1)C(=O)c1cc2ccc(F)cc2[nH]1` [Example 9, 6-fluoro-N-isopropyl-N-(pyridin-3-ylmethyl)-1H-indole-2-carboxamide], the pIC50 was 5.00 to 6.00. The value for `Cn1c(C(=O)NC23CC(F)(C2)C3)cc2ccnc(Cl)c21` [Example 110, 7-chloro-N-[3-fluorobicyclo[1.1.1]pentan-1-yl]-1-methylpyrrolo[2,3-c]pyridine-2-carboxamide] was 6.00 to 7.00.

For orientation: pIC50 means the IC50 on a negative log10 scale, so that one unit is a factor of ten.
